Test results taken from BigSolDB 2.1.

CCCCCCCC[n+]1ccn(C)c1.O=[N+]([O-])[O-]
solubility (mole fraction)
Conditions	in benzene	in cyclohexane	in m-xylene	in n-heptane	in n-hexane	in n-octane	in n-pentane	in o-xylene	in p-xylene	in toluene
278.15 K	–	–	–	–	–	–	0.000687	–	–	–
283.15 K	–	–	–	–	–	–	0.000816	–	–	–
288.15 K	–	–	–	–	0.000683	–	0.000955	–	–	–
293.15 K	–	0.000775	–	0.000342	0.00078	0.000355	0.0011	–	–	–
298.15 K	0.000303	0.000901	0.00526	0.000407	0.000919	0.000411	0.00127	0.005	0.00308	0.000371
303.15 K	0.000357	0.00106	0.00566	0.000488	0.00113	0.000502	0.00149	0.00529	0.00331	0.00043
308.15 K	0.00041	0.00124	0.00605	0.000586	0.00128	0.000605	–	0.00558	0.00358	0.0005
313.15 K	0.00049	0.00146	0.00645	0.000728	0.00162	0.000733	–	0.00587	0.00383	0.000598
318.15 K	0.000572	0.00169	0.00685	0.000856	0.00184	0.000866	–	0.00616	0.00408	0.000699
323.15 K	0.000661	0.00191	0.00725	0.00101	0.00206	0.00101	–	0.00646	0.00431	0.000806
328.15 K	0.000751	0.00212	0.00765	0.00119	0.00232	0.00123	–	0.00675	0.00458	0.000892
333.15 K	0.00086	0.00244	0.00805	0.00143	0.00271	0.00145	–	0.00704	0.00483	0.00103
338.15 K	0.000981	0.00275	0.00845	0.00166	–	0.00168	–	0.00733	0.00508	0.00117
343.15 K	0.00111	–	0.00885	0.00193	–	0.00198	–	0.00762	0.00533	0.00133

CCCCCC[n+]1ccn(C)c1.O=[N+]([O-])[O-]
solubility (mole fraction)
Conditions	in benzene	in cyclohexane	in m-xylene	in n-heptane	in n-hexane	in n-octane	in n-pentane	in o-xylene	in p-xylene	in toluene
278.15 K	–	–	–	–	–	–	0.000359	–	–	–
283.15 K	–	–	–	–	–	–	0.000397	–	–	–
288.15 K	–	–	–	–	0.000306	–	0.000442	–	–	–
293.15 K	–	0.000304	–	–	0.000362	0.000203	0.000484	–	–	–
298.15 K	0.000219	0.000357	0.00239	–	0.00042	0.000234	0.000534	0.00133	0.000795	0.000278
303.15 K	0.000263	0.0004	0.00271	–	0.000492	0.000268	0.000578	0.00145	0.000896	0.000334
308.15 K	0.000308	0.000446	0.00303	–	0.000575	0.000299	–	0.0016	0.00102	0.00039
313.15 K	0.000382	0.000516	0.00337	0.000268	0.000693	0.000344	–	0.00173	0.00114	0.000482
318.15 K	0.000454	0.000592	0.00376	0.000358	0.000794	0.00038	–	0.00187	0.00128	0.000585
323.15 K	0.000536	0.000674	0.00413	0.00049	0.000895	0.000421	–	0.00198	0.00141	0.000686
328.15 K	0.00061	0.000751	0.00458	0.000629	0.000995	0.000458	–	0.00213	0.00155	0.000776
333.15 K	0.000714	0.000857	0.00505	0.000841	0.00113	0.000518	–	0.00227	0.00169	0.000904
338.15 K	0.000832	0.00097	0.00553	0.00109	–	0.000568	–	0.0024	0.00182	0.00106
343.15 K	0.000962	–	0.00607	0.00142	–	0.000631	–	0.00253	0.00199	0.00123
